From patent US20130310374A1, “Substituted Imidazoquinoline Derivatives” (PIRAMAL ENTERPRISES LIMITED`, priority 2010, published 2013)

What was measured:
PC3 = assay: Cytotoxicity propidium iodide assay, PC3; assay type: cell-based, human; details: for inhibition at 1 µM / inhibition at 10 µM / IC50: Homo sapiens, PC-3; for inhibition at 1 µM: read-out: % Inhibition at 1 μM, C2a; for inhibition at 10 µM: PC3, 10 μM (stated in cell), read-out: % Inhibition at 10 μM, C2a; for IC50: PC3 (prostate), 48 hours treatment, read-out: IC50 Values in μM, C2a
Experimental: (§1) The assay was designed as in the reference, Anticancer Drugs, 2002, 13, 1-8, the disclosure of which is incorporated herein by reference for the teaching of the assay.
(§2) Cells from cell lines (ATCC) as mentioned in the table given below were seeded at a density of 3000 cells/well in a white opaque 96-well plate. Following incubation at 37° C./5% CO2 for a period of 18-24 hours, the cells were treated with various concentrations (stock solution was prepared in DMSO and subsequent dilutions were made in media as per ATCC guidelines) of the compounds of the present invention for a period of 48 hours. At the end of treatment, the culture medium was discarded, the cells were washed with 1×PBS and 200 μL of […] propidium iodide was added to each well. The plates were frozen at […] overnight. For analysis, the plates were warmed to RT, allowed to thaw and were read in PoleStar fluorimeter with the fluorescence setting. The percentage of viable cells in the non-treated set of wells was considered to be 100 and the percentage viability following treatment was calculated accordingly. IC50 values were calculated from graphs plotted using these percentages. IC50 values for certain compounds of present invention are depicted in Table 1 and % Inhibition of certain compounds of present invention are depicted in Table 2.

A2780 = assay: Cytotoxicity propidium iodide assay, A2780; assay type: cell-based; details: for inhibition at 1 µM / inhibition at 10 µM / IC50: Homo sapiens; for inhibition at 1 µM: read-out: % Inhibition at 1 μM, C1a; for inhibition at 10 µM: A2780, 10 μM (stated in cell), read-out: % Inhibition at 10 μM, C1a; for IC50: A2780 (ovarian), 48 hours treatment, read-out: IC50 Values in μM, C1a
Experimental: as §1, §2

Compound | inhibition at 1 µM (PC3; PC3, 1 μM, 48 hours) | inhibition at 1 µM (A2780; A2780, 1 μM, 48 hours) | also measured
N#CCn1c(=O)n(-c2ccc(C#N)nc2)c2c3cc(-c4cccnc4)ccc3ncc21 [Example 42, 5-(3-(Cyanomethyl)-2-oxo-8-(pyridin-3-yl)-2,3-dihydro-1H-imidazo[4,5-c]quinolin-1-yl)picolinonitrile] | 60 to 80% | 60 to 80% | –
CC(C#N)n1c(=O)n(-c2ccc(C#N)nc2)c2c3cc(-c4cccnc4)ccc3ncc21 (centres unmarked) [Example 43, 5-(3-(1-Cyanoethyl)-2-oxo-8-(pyridin-3-yl)-2,3-dihydro-1H-imidazo[4,5-c]quinolin-1-yl)picolinonitrile] | 13% | 8% | –
COc1ccc(-n2c(=O)n(C)c3cnc4ccc(-c5ccc(N(C)C)nc5)cc4c32)cn1 [Example 25, 8-(6-(Dimethylamino)pyridin-3-yl)-1-(6-methoxypyridin-3-yl)-3-methyl-1H-imidazo[4,5-c] quinolin-2(3H)-one] | 69% | 83.4% | –
COc1ccc(-c2ccc3ncc4c(c3c2)n(-c2ccc(C#N)nc2)c(=O)n4C)cn1 [Example 48, 5-(8-(6-Methoxypyridin-3-yl)-3-methyl-2-oxo-2,3-dihydro-1H-imidazo[4,5-c]quinolin-1-yl)picolinonitrile] | – | – | inhibition at 10 µM (PC3; 48 hours): 40 to 60%; inhibition at 10 µM (A2780; 48 hours): 40 to 60%
Cn1c(=O)n(-c2ccc(C#N)nc2)c2c3cc(-c4cnc(N)c(C(F)(F)F)c4)ccc3ncc21 [Example 45, 5-(8-(6-Amino-5-(trifluoromethyl)pyridin-3-yl)-3-methyl-2-oxo-2,3-dihydro-1H-imidazo[4,5-c]quinolin-1-yl)picolinonitrile] | 37% | 52% | –
CCOc1ccc(-n2c(=O)n(C)c3cnc4ccc(-c5cnc(N)c(C(F)(F)F)c5)cc4c32)cn1 [Example 30, 8-(6-Amino-5-(trifluoromethyl)pyridin-3-yl)-1-(6-ethoxypyridin-3-yl)-3-methyl-1H-imidazo[4,5-c]quinolin-2(3H)-one] | 71% | 94% | –
Cn1c(=O)n(-c2ccc(Cl)nc2)c2c3cc(-c4cccnc4)ccc3ncc21 [Example 60, 1-(6-Chloropyridin-3-yl)-3-methyl-8-(pyridin-3-yl)-1H-imidazo[4,5-c]quinolin-2(3H)-one] | – | – | IC50 (PC3): 0.85 µM; IC50 (A2780): 0.68 µM
COc1ccc(-n2c(=O)n(C)c3cnc4ccc(-c5cnc6ccccc6c5)cc4c32)c(C)n1 [Example 41, 1-(6-Methoxy-2-methylpyridin-3-yl)-3-methyl-8-(quinolin-3-yl)-1H-imidazo[4,5-c]quinolin-2(3H)-one] | 68% | 80% | –
Cn1c(=O)n(-c2ccc(C(C)(C)C#N)nc2)c2c3cc(-c4cncc5ccccc45)ccc3ncc21 [Example 6, 2-(5-(8-(Isoquinolin-4-yl)-3-methyl-2-oxo-2,3-dihydro-1H-imidazo[4,5-c]quinolin-1-yl)pyridin-2-yl)-2-methylpropanenitrile] | 69.5% | 85.3% | –
COc1ccc(-n2c(=O)n(CC#N)c3cnc4ccc(-c5ccc(C(F)(F)F)nc5)cc4c32)c(C)n1 [Example 37, 2-(1-(6-Methoxy-2-methylpyridin-3-yl)-2-oxo-8-(6-(trifluoromethyl)pyridin-3-yl)-1H-imidazo[4,5-c]quinolin-3(2H)-yl)acetonitrile] | 49.5% | 70% | –
COc1ccc(-n2c(=O)n(C)c3cnc4ccc(-c5cncc(C(F)(F)F)c5)cc4c32)c(C)n1 [Example 39, 1-(6-Methoxy-2-methylpyridin-3-yl)-3-methyl-8-(5-(trifluoromethyl)pyridin-3-yl)-1H-imidazo[4,5-c]quinolin-2(3H)-one] | 68.8% | 83.4% | –
Cn1c(=O)n(-c2ccc(C(F)(F)F)nc2)c2c3cc(-c4cccnc4)ccc3ncc21 [Example 53, 3-Methyl-8-(pyridin-3-yl)-1-(6-(trifluoromethyl)pyridin-3-yl)-1H-imidazo[4,5-c]quinolin-2(3H)-one] | – | – | IC50 (PC3): 0.75 µM; IC50 (A2780): 0.55 µM
CC(C#N)n1c(=O)n(-c2ccc(C#N)nc2)c2c3cc(-c4cnc5ccccc5c4)ccc3ncc21 (centres unmarked) [Example 52, 5-(3-(1-Cyanoethyl)-2-oxo-8-(quinolin-3-yl)-2,3-dihydro-1H-imidazo[4,5-c]quinolin-1-yl)picolinonitrile] | 12% | 36% | –
COc1ccc(-n2c(=O)n(CC#N)c3cnc4ccc(-c5cnc6ccccc6c5)cc4c32)cn1 [Example 24, 2-(1-(6-Methoxypyridin-3-yl)-2-oxo-8-(quinolin-3-yl)-1H-imidazo[4,5-c]quinolin-3(2H)-yl)acetonitrile] | 39% | 66% | –
COc1ccc(-n2c(=O)n(CC#N)c3cnc4ccc(-c5cccnc5)cc4c32)cn1 [Example 21, 2-(1-(6-Methoxypyridin-3-yl)-2-oxo-8-(pyridin-3-yl)-1H-imidazo[4,5-c]quinolin-3(2H)-yl)acetonitrile] | 27% | 38% | –
N#CCn1c(=O)n(-c2ccc(C#N)nc2)c2c3cc(-c4cnc5ccccc5c4)ccc3ncc21 [Example 51, 5-(3-(Cyanomethyl)-2-oxo-8-(quinolin-3-yl)-2,3-dihydro-1H-imidazo[4,5-c]quinolin-1-yl)picolinonitrile] | 41% | 73% | –
6-Chloro-5-(3-methyl-2-oxo-8-(quinolin-3-yl)-2,3-dihydro-1H-imidazo[4,5-c]quinolin-1-yl)picolinonitrile [Example 58] | – | – | % Inhibition at 1 μM, C2a (PC3; PC3, 1 μM, 48 hours): 60%; % Inhibition at 1 μM, C1a (A2780; A2780, 1 μM, 48 hours): 91%
Cn1c(=O)n(-c2ccc(C#N)nc2)c2c3cc(-c4ccc(F)nc4)ccc3ncc21 [Example 47, 5-(8-(6-Fluoropyridin-3-yl)-3-methyl-2-oxo-2,3-dihydro-1H-imidazo[4,5-c]quinolin-1-yl)picolinonitrile] | – | – | inhibition at 10 µM (PC3; 48 hours): 40 to 60%; inhibition at 10 µM (A2780; 48 hours): 40 to 60%
Cn1c(=O)n(-c2ccc(C#N)nc2)c2c3cc(-c4cccnc4F)ccc3ncc21 [Example 46, 5-(8-(2-Fluoropyridin-3-yl)-3-methyl-2-oxo-2,3-dihydro-1H-imidazo[4,5-c]quinolin-1-yl)picolinonitrile] | 27% | 34% | –
COc1ccc(-n2c(=O)n(C)c3cnc4ccc(-c5cnc(N)c(C(F)(F)F)c5)cc4c32)c(C)n1 [Example 38, 8-(6-Amino-5-(trifluoromethyl)pyridin-3-yl)-1-(6-methoxy-2-methylpyridin-3-yl)-3-methyl-1H-imidazo[4,5-c]quinolin-2(3H)-one] | – | – | IC50 (PC3): 0.0078 µM; IC50 (A2780): < 0.005 µM
CC(C)(C#N)c1ccc(-n2c(=O)n(CC#N)c3cnc4ccc(-c5cccnc5)cc4c32)cn1 [Example 14, 2-(5-(3-(Cyanomethyl)-2-oxo-8-(pyridin-3-yl)-2,3-dihydro-1H-imidazo[4,5-c]quinolin-1-yl)pyridin-2-yl)-2-methylpropanenitrile] | – | – | IC50 (PC3): 0.42 µM; IC50 (A2780): 0.4 µM
Cn1c(=O)n(CCN2CCOCC2)c2c3cc(-c4cnc(N)c(C(F)(F)F)c4)ccc3ncc21 [Example 69, 8-(6-Amino-5-(trifluoromethyl)pyridin-3-yl)-3-methyl-1-(2-morpholinoethyl)-1H-imidazo[4,5-c]quinolin-2(3H)-one] | – | – | IC50 (PC3): 0.07 µM; IC50 (A2780): 0.022 µM
